The text below walks through data of publication PMC11813896, “Bis(7)-harmine derivatives as potential multi-target anti-Alzheimer agents” (Frontiers in Chemistry, 2025).

Series [1] has as its system AChE. As to conditions: ref Rook et al., 2010; Zhao et al., 2018; read-out: AChE (bis-(2)-β-carboline 4, Figure 1); cited from earlier work.
For series [2], the system named is BuChE. As to conditions: ref Rook et al., 2010; Zhao et al., 2018; read-out: BuChE (bis-(2)-β-carboline 4, Figure 1); cited from earlier work.
The target of series [3] is hAChE (Homo sapiens, UniProt P22303). Description: biochemical. As to conditions: for IC50: Mean ± SD from 3-5 assays, read-out: IC50 (nM) for cholinesterase hAChE. As to the method:
50 μL of hAChE (0.02 unit/mL) or hBChE (0.02 unit/mL) were incubated with 10 μL of the compound in 96-well plates at 37°C for 6 min. Subsequently, 30 μL of a substrate solution containing acetylthiocholine iodide (ATCI) or butyrylthiocholine iodide (BTCI) at a concentration of 0.01 M was added, and the mixture was further incubated at 37°C for an additional duration of 12 min.

In series [4] the target is hBuChE (Homo sapiens, UniProt P06276). Put plainly: Ellman's assay, hBuChE inhibition. As to conditions: for inhibition at 1 µM: compound at 1 μM, read-out: inhibition of hBuChE in primary screening; for IC50: Mean ± SD from 3-5 assays, read-out: IC50 (nM) for cholinesterase hBuChE. It is filed as biochemical. As to the method: The Ellman’s assay was utilized to assess the inhibitory potential of novel bis(7)-harmine derivatives against hAChE and hBuChE. 50 μL of hAChE (0.02 unit/mL) or hBChE (0.02 unit/mL) were incubated with 10 μL of the compound in 96-well plates at 37°C for 6 min. Subsequently, 30 μL of a substrate solution containing acetylthiocholine iodide (ATCI) or butyrylthiocholine iodide (BTCI) at a concentration of 0.01 M was added, and the mixture was further incubated at 37°C for an additional duration of 12 min. Finally, the activity was measured by adding 150 μL of a solution containing 5,5′−dithiobis (2-nitrobenzoic acid) (DTNB) at a concentration of 0.01 M, followed by measuring absorbance at a wavelength of 415 nm using an Evolution 300 PC UV-Vis Spectrophotometer.

The target in series [5] is T1, recombinant hMAO-A (Homo sapiens, UniProt P21397).
T1 construct: purchased Sigma-Aldrich
T1 sequence (P21397 1-527): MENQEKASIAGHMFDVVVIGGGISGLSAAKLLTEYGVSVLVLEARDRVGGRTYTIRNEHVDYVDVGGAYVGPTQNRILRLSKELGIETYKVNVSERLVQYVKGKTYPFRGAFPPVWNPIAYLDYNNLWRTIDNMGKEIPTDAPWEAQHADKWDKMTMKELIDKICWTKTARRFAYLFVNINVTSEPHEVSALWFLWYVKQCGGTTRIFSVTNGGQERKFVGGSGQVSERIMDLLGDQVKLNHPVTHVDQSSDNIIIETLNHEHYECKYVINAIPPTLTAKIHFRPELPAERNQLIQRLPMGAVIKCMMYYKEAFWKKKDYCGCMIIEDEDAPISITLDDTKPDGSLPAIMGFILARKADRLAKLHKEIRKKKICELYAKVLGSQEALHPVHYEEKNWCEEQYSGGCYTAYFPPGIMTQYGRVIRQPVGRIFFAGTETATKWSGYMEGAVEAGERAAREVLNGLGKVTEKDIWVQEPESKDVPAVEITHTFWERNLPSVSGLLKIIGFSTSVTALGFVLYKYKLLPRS
Put plainly: biochemical. The note with it: for IC50: mean ± SD, read-out: IC50 (nM) for monoamine oxidases hMAO-A. As to the method:
(§1) Briefly, the compounds under investigation and the reference inhibitor were preincubated with kynuramine at 37°C for 10 min in 96-well microplates. […] The enzymatic reactions were terminated by adding 400 μL of 2 N NaOH and 1,000 μL of water, followed by centrifugation at 16,000 g for 10 min. Subsequently, the concentrations of MAOs that produced 4-hydroxyquinoline were determined by measuring the fluorescence of the supernatant using a Varioskan Flash Multimode Reader ([…]) with excitation and emission wavelengths set at 310 nm and 400 nm, respectively. The IC50 values were calculated from dose-response curves and expressed as the mean ± standard deviation. These values were determined based on at least three independent experiments, each performed in triplicate.

For series [6], the target named is T2, recombinant hMAO-B (Homo sapiens, UniProt P27338).
T2 construct: purchased Sigma-Aldrich
T2 sequence (P27338 1-520): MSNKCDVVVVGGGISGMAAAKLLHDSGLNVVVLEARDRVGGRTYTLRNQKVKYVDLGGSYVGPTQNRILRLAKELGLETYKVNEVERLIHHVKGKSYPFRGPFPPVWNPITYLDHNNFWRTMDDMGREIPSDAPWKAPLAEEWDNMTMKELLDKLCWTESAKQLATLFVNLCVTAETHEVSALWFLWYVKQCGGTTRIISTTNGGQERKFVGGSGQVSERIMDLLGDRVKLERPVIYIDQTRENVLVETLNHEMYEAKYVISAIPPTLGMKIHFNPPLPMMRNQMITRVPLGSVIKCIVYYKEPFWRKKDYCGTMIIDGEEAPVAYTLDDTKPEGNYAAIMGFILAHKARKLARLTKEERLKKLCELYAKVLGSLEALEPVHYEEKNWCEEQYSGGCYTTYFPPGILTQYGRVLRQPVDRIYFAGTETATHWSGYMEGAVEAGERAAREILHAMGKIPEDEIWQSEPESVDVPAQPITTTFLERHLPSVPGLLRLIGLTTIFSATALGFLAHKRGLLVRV
Put plainly: biochemical. As to conditions: for IC50: mean ± SD, read-out: IC50 (nM) for monoamine oxidases hMAO-B. As to the method:
as §1

For series [7], the target named is Aβ 1−42 (Homo sapiens, UniProt P05067). Description: Thioflavin T fluorescence assay, Aβ 1−42 self-aggregation. Format: biochemical. As to conditions: Aβ 1-42 20 μM, 37°C, 24 h. As to the method:
The thioflavin T (Th-T) fluorescence assay was used to assess the inhibition of Aβ 1−42 self-aggregation. […] Subsequently, the reaction was terminated to a final volume of 200 μL using Th-T (10 μM) solution.

In series [8] the test system is SHSY5Y cells. Description: In vitro cytotoxicity, MTT assay. As to conditions: 48 h; for effect on SHSY5Y cell viability: 1 μM. It is filed as cell-based. As to the method:
Following this incubation period, the MTT solution was substituted with […] of DMSO and further incubated at room temperature for 10 minutes to dissolve formazan crystals formed by viable cells. Sorensen Buffer ([…]) was added subsequently followed by measuring absorbance at a wavelength of 570 nm to determine cell viability based on calculated values obtained from control samples without compound treatment. This experimental procedure was repeated independently three times.

Aβ 1−42, sequence (P05067 672-713 limits assumed): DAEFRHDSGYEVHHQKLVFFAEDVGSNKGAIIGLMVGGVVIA
hBuChE, sequence (P06276 29-602): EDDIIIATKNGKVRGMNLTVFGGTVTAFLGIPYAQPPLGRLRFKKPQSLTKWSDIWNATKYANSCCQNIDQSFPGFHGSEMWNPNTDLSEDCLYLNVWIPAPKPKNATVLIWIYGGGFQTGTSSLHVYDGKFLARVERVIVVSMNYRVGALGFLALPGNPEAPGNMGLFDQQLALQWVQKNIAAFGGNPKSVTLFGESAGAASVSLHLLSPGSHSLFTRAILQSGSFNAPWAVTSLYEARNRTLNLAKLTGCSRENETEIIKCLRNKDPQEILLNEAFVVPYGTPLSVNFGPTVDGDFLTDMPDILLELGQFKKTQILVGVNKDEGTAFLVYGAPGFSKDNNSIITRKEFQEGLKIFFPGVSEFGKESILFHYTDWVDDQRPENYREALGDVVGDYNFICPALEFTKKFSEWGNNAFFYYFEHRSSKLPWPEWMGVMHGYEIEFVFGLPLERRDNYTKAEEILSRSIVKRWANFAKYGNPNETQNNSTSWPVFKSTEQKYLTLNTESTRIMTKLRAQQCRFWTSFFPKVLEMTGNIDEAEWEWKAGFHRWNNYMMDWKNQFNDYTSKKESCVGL
hAChE, sequence (P22303 32-614): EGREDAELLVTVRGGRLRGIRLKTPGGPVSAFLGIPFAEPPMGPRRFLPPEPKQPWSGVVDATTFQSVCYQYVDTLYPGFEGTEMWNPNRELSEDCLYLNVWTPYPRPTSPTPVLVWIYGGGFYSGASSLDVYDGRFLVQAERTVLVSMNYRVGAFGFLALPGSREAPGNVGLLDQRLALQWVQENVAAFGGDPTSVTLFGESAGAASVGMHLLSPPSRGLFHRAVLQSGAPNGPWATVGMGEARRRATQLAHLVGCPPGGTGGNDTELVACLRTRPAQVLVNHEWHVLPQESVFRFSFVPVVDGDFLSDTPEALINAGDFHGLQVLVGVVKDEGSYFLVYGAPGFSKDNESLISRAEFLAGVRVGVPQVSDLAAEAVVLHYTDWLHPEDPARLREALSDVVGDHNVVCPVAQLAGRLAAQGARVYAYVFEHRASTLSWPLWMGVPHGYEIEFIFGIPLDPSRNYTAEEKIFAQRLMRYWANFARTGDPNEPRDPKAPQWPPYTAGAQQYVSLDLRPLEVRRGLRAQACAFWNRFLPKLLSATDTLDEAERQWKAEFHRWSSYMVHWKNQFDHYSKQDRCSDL

Regarding `c1ccc2c(c1)[nH]c1c[n+](CCCCCCCCCCCC[n+]3ccc4c(c3)[nH]c3ccccc34)ccc12` [Compound 4], the figures for the IC50 in series [1] and in series [2] were 86 nM and 22 nM, respectively.

As to `Cc1nccc2c3ccc(OCCCCCCCOc4ccc5c6ccnc(C)c6n(C)c5c4)cc3n(C)c12` [Compound 7a, 1,7-bis ((1,9-dimethyl-9H-pyrido [3,4-b]indol-7-yl)oxy)heptane], the “S.I. Selectivity index IC50(hBuChE)/IC50(hAChE)” value in series [3] is on record as more than 4.4. Moreover, the IC50 in series [3] amounted to 226 ± 13.4 nM; in series [5], 7.2 ± 0.8 nM; in series [6], 281 ± 24.5 nM; in series [7], 6.3 ± 0.2 µM. Further, the inhibition at 1 µM in series [4] stood at 37.3%. The “S.I. Selectivity index IC50(hMAO-B)/IC50(hMAO-A)” value in series [5] was 40.1. For the same compound, the “effect on SHSY5Y cell viability” value in series [8] is given as “pronounced detrimental effect”.

On to `CCCn1c2cc(OCCCCCCCOc3ccc4c5ccnc(C)c5n(CCC)c4c3)ccc2c2ccnc(C)c21` [Compound 7c, 1,7-bis ((1-methyl-9-propyl-9H-pyrido [3,4-b]indol-7-yl)oxy)heptane], for which, in series [3], the “S.I. Selectivity index IC50(hBuChE)/IC50(hAChE)” value is given as more than 25.6. Also, the results for the IC50 in series [3], in series [5] and in series [7] were 39.2 ± 2.9 nM, 9.1 ± 0.6 nM and 13.3 ± 0.6 µM, respectively. In addition, the inhibition at 1 µM in series [4] amounted to 44.8%; in series [6] (compound at 1 μM, read-out: inhibition of hMAO-B in primary screening) it was 34.1%. Further, the “S.I. Selectivity index IC50(hMAO-B)/IC50(hMAO-A)” value in series [5] is on record as more than 111.1.

Turning to `C=CCn1c2cc(OCCCCCCCOc3ccc4c5ccnc(C)c5n(CC=C)c4c3)ccc2c2ccnc(C)c21` [Compound 7d, 1,7-bis ((9-allyl-1-methyl-9H-pyrido [3,4-b]indol-7-yl)oxy)heptane], the IC50 in series [3] was 896 ± 65.4 nM; in series [4] it was 23.7 ± 1.3 nM; in series [5], 74.6 ± 5.2 nM; in series [6] it was 12.6 ± 0.76 nM; in series [7], 17.1 ± 0.6 µM. The “S.I. Selectivity index IC50(hMAO-B)/IC50(hMAO-A)” value in series [5] is reported as 0.2.

For the compound `Cc1nccc2c3ccc(OCCCCCCCCOc4ccc5c6ccnc(C)c6n(C)c5c4)cc3n(C)c12` [Compound 8a, 1,8-bis ((1,9-dimethyl-9H-pyrido [3,4-b]indol-7-yl)oxy)octane], the inhibition at 1 µM in series [3] (compound at 1 μM, read-out: inhibition of hAChE in primary screening) amounted to 42.2%; in series [4] it was 39.1%. Moreover, in series [5], the “S.I. Selectivity index IC50(hMAO-B)/IC50(hMAO-A)” value turned out to be 10.0. Also, the IC50 in series [5] stood at 95.2 ± 4.9 nM; in series [6], 954 ± 49.8 nM; in series [7], 16.5 ± 0.4 µM.

Turning to `CCn1c2cc(OCCCCCCCCOc3ccc4c5ccnc(C)c5n(CC)c4c3)ccc2c2ccnc(C)c21` [Compound 8b, 1,8-bis ((9-ethyl-1-methyl-9H-pyrido [3,4-b]indol-7-yl)oxy)octane], in series [3], the “S.I. Selectivity index IC50(hBuChE)/IC50(hAChE)” value is recorded as 2.7. Further, the IC50 in series [3] was found to be 324 ± 20.5 nM; in series [4], 855 ± 48.8 nM; in series [5] it was 66.5 ± 4.1 nM; in series [6], 758 ± 52.6 nM; in series [7] it was 18.7 ± 0.9 µM. Also, the “S.I. Selectivity index IC50(hMAO-B)/IC50(hMAO-A)” value in series [5] came out at 11.5. In addition, in series [8], the “effect on SHSY5Y cell viability” value was “pronounced detrimental effect”.

With `CCCn1c2cc(OCCCCCCCCOc3ccc4c5ccnc(C)c5n(CCC)c4c3)ccc2c2ccnc(C)c21` [Compound 8c, 1,8-bis ((1-methyl-9-propyl-9H-pyrido [3,4-b]indol-7-yl)oxy)octane], the “S.I. Selectivity index IC50(hBuChE)/IC50(hAChE)” value in series [3] is recorded as more than 6.3. The IC50 in series [3] came out at 158 ± 11.6 nM; in series [5] it was 16.4 ± 1.1 nM; in series [6], 153 ± 8.3 nM; in series [7], 19.3 ± 1 µM. Further, the inhibition at 1 µM in series [4] amounted to 43.4%. The “S.I. Selectivity index IC50(hMAO-B)/IC50(hMAO-A)” value in series [5] is reported as 9.5. Moreover, the “cytotoxicity in SHSY5Y cells” value in series [8] (0.1 to 10 μM) is “negligible cytotoxicity”. For the same compound, in series [8] (concentration increased to 10 μM (so in the source)), the “SHSY5Y cell viability at increased concentration” value is on record as “evident decrease in SHSY5Y cell viability”.
